Patent publication US12029744B2, “Bicyclic heteroaryl derivatives as ectonucleotide pyrophosphatase phosphodiesterase 1 inhibitors” (Riboscience LLC, priority 2019, dated 2024)

Tested on: HGS tumor model
Test: Anti-tumor activity in HGS tumor model
Assay type: in vivo
Details: animals treated with 20/kg of compound, day 42 after inoculation (vehicle group 645)
Text: […]

Row | Structure (SMILES) | tumor size [mm3]
1 | C=CC(=O)N1CCN(CCCn2c(=O)c(-c3c(Cl)c(OC)cc(OC)c3Cl)cc3cnc(NC)nc32)CC1 [8-(3-(4-acryloylpiperazin-1-yl)propyl)-6-(2,6-dichloro-3,5-dimethoxyphenyl)-2-(methylamino)pyrido[2,3-d]pyrimidin-7(8H)-one] | 55

Target: T1, ENPP1 (Homo sapiens, UniProt P22413)
T1 sequence (P22413 1-925): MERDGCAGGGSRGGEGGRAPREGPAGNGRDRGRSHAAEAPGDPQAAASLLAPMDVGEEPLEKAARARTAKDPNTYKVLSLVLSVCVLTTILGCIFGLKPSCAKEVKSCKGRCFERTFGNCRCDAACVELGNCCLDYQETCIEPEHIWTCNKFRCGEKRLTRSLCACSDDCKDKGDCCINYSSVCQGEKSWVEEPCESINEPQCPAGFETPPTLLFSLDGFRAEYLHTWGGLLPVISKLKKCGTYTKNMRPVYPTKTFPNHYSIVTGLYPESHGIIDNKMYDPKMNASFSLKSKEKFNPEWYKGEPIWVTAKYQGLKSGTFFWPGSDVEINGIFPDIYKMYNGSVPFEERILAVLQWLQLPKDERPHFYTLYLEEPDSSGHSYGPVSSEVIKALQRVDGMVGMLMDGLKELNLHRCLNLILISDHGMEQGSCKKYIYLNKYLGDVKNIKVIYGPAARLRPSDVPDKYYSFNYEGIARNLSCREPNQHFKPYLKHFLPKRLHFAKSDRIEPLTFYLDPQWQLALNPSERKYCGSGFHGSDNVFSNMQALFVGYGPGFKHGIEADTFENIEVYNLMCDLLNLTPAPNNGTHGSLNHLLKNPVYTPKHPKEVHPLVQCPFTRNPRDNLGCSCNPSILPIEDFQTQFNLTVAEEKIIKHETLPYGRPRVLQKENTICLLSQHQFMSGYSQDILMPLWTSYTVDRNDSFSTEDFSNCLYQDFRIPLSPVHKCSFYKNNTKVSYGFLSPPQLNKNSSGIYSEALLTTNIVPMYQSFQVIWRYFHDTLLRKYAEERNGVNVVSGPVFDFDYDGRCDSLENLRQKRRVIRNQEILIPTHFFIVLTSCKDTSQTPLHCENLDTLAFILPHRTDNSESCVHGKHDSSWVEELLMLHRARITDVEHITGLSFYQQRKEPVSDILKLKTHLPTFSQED
Test: Measurement of pNP-TMP hydrolysis by ENPP1 (enzyme activity assay, absorbance at 405 nm)
Assay type: biochemical
Details: not given
Experimental: Measurement of pNP-TMP Hydrolysis by ENPP1
p-Nitrophenyl thymidine 5′-monophosphate (pNP-TMP) is a synthesized substrate for ENPP1. The ENPP1 enzyme activity assay with pNP-TMP substrate was conducted as follows:
Incubation of ENPP1 with compounds was set at 25° C. for 10 min. […] For each compound dilution, wells with assay buffer (50 mM Tris-HCl, pH8.8, 250 mM NaCl, 0.1 mg/ml BSA, 1% DMSO) only but no ENPP1 were included as controls for subtraction of test compound derived absorbance at 405 nm.
Absorbance at 405 nm was recorded immediately in kinetic mode by PerkinElmer 2300 Enspire multimode plate reader.
For each inhibitor, the specific ENPP1 activity was calculated using the following equation: ENPP1 activity (pmol/min/μg)=Adjusted Vmax (OD405 nm/min)×conversion factor (pmol/OD405 nm)/amount of enzyme (μg)
Adjusted Vmax=V0×(Km+(S))/(S).
V0=(OD405 nm with ENPP1−OD405 nm ENPP1 blank)/minutes. OD405 nm was plotted, with blank subtracted, against time (minutes), the initial linear rate is V0. […]
The slope is the conversion factor. The percent ENPP1 activity for each sample was calculated using the following equation: % enzyme activity=sample enzyme activity/MAX Activity×100%.
To determine the IC50 for each compound, compound concentration values and percent enzyme activity values were inserted into GraphPad Prism (GraphPad Prism version 7.0 for Windows, GraphPad Software, La Jolla California USA, www.graphpad.com), and Prism's Transform analysis was used to convert the x-axis values (compound concentration) to logarithms. A sigmoidal variable slope nonlinear regression analysis was performed using the following equation: Y=Bottom+(Top−Bottom)/(1+10^[…])).

Row | Structure (SMILES) | Ki [nM]
2 | NC(=O)c1ccc2c(ncn2Cc2ccc(P(=O)(O)O)cc2)n1 [Compound 138, 4-((5-carbamoylimidazo[4,5-b]pyridin-1-yl)methyl)phenylphosphonic acid] | < 100

Same assay, conditions: substrate pNP-TMP 500 μM, KM 232 μM; Ki from IC50 by Cheng-Prusoff; read-out: Ki (pNP-TMP)

Row | Structure (SMILES) | Ki [nM]
3 | NC(=O)c1ccc2c(c1)ncn2Cc1ccc(P(=O)(O)O)cc1 [Compound 49, 4-((5-carbamoyl-1,3-benzodiazol-1-yl)methyl)phenylphosphonic acid] | < 1000
4 | OB(O)c1ccc(Cn2cnc3c(C(F)F)cccc32)cc1 [Compound 130, 4-((4-(difluoromethyl)-1,3-benzodiazol-1-yl)methyl)phenylboronic acid] | < 1000
5 | COc1cccc2c1nc(C)n2Cc1ccc(B(O)O)cc1 [Compound 95, 4-((4-methoxy-2-methyl-1,3-benzodiazol-1-yl)methyl) phenylboronic acid] | < 100
6 | NC(=O)c1ccc2c(cnn2Cc2ccc(B(O)O)cc2)c1 [Compound 34, 4-((5-carbamoylindazol-1-yl)methyl)phenylboronic acid] | < 100
7 | COc1cc2ncn(Cc3ccc(B(O)O)cc3)c2cc1OC [Compound 1, 4-((5,6-dimethoxy-1,3-benzodiazol-1-yl)methyl)phenylboronic acid] | < 100
8 | O=c1[nH]cnc2c1ncn2Cc1ccc(B(O)O)cc1 [Compound 3, 4-((6-oxo-1H-purin-9-yl)methyl)phenylboronic acid] | < 1000
9 | OB(O)c1ccc(Cn2cnc3nc(O)ccc32)cc1 [Compound 127] | < 10
10 | CCc1nc2c(O)nccc2n1Cc1ccc(B(O)O)cc1 [Compound 73, 4-((2-ethyl-4-hydroxyimidazo [4,5-c]pyridin-1-yl)methyl) phenylboronic acid] | < 100
11 | CC(C)c1cc2c(O)nccc2n1Cc1ccc(B(O)O)cc1 [Compound 107, 4-((4-hydroxy-2-isopropylpyrrolo[3,2-c]pyridin-1-yl)methyl)phenylboronic acid] | < 100
12 | O=P(O)(O)c1ccc(Cn2ncc3c(O)nccc32)cc1 [Compound 64, 4-((4-hydroxypyrazolo[4,3-c]pyridin-1-yl)methyl)phenylphosphonic acid] | < 100
13 | COC(=O)c1ccc2c(c1)ncn2Cc1ccc(B(O)O)cc1 [Compound 41, 2,2,2-trifluoroacetic acid--(4-((5-(methoxycarbonyl)-1H-benzo[d]imidazol-1-yl)methyl)phenyl)boronic acid (1/1)] | < 100
14 | Nc1nc2c(ncn2Cc2ccc(B(O)O)cc2)c(=O)[nH]1 [Compound 5, 4-((2-amino-6-oxo-1H-purin-9-yl)methyl)phenylboronic acid] | < 100
15 | NC(=O)c1ccc2c(ncn2Cc2ccc(B(O)O)cc2)c1N [Compound 105, 4-((4-amino-5-carbamoyl-1,3-benzodiazol-1-yl)methyl)phenylboronic acid] | < 100
16 | Cc1nc2cc(C(N)=O)ccc2n1Cc1ccc(P(=O)(O)O)cc1 [Compound 136, 4-((5-carbamoyl-2-methyl-1,3-benzodiazol-1-yl)methyl)phenylphosphonic acid] | < 100
17 | O=c1[nH]cnc2c1c(F)cn2Cc1ccc(B(O)O)cc1 [Compound 63, (4-((5-fluoro-4-oxo-3,4-dihydro-7H-pyrrolo[2,3-d]pyrimidin-7-yl)methyl)phenyl) boronic acid] | < 100
18 | COc1nccc2c1cnn2Cc1ccc(B(O)O)cc1 [Compound 98, 4-((4-methoxypyrazolo [4,3-c]pyridin-1-yl)methyl) phenylboronic acid] | < 1000
19 | COc1cc2c(cc1C(N)=O)ncn2Cc1ccc(B(O)O)cc1 [Compound 32, 4-((5-carbamoyl-6-methoxy-1,3-benzodiazol-1-yl)methyl)phenylboronic acid] | < 100
20 | NC(=O)c1ccc2c(cnn2Cc2ccc(P(=O)(O)O)cc2)c1 [Compound 65, 4-((5-carbamoylindazol-1-yl)methyl) phenylphosphonic acid] | < 100
21 | CC(C)c1nc2c(O)nccc2n1Cc1ccc(B(O)O)cc1 [Compound 75, 4-((4-hydroxy-2-isopropylimidazo[4,5-c]pyridin-1-yl)methyl) phenylboronic acid] | < 100
22 | Cc1nc2nc(C(N)=O)ccc2n1Cc1ccc(B(O)O)cc1 [Compound 144, (4-((5-carbamoyl-2-methyl-1H-imidazo[4,5-b]pyridin-1-yl)methyl)phenyl)boronic acid] | < 10
